Experimental data taken from PubChem BioAssay (NCI).
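48-hour exposure; five concentrations; linearly interpolated endpoints. Abbreviation: GI50, concentration required for 50% inhibition of growth. TGI marks complete inhibition of growth.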

What was measured:
Assay in all cases: NCI tumour cell line growth inhibition, 48 h
NCI-H226 lung = tested on: NCI-H226 lung
RXF 393 renal = tested on: RXF 393 renal
UO-31 renal = tested on: UO-31 renal
BT-549 breast = tested on: BT-549 breast
NCI-H522 lung = tested on: NCI-H522 lung
HCT-15 colon = tested on: HCT-15 colon
CCRF-CEM leukemia = tested on: CCRF-CEM leukemia
SN12C renal = tested on: SN12C renal
U251 CNS = tested on: U251 CNS
SK-OV-3 ovarian = tested on: SK-OV-3 ovarian
CAKI-1 renal = tested on: CAKI-1 renal
MDA-MB-435 = tested on: MDA-MB-435
HCC-2998 colon = tested on: HCC-2998 colon
NCI-H23 lung = tested on: NCI-H23 lung
LOX IMVI melanoma = tested on: LOX IMVI melanoma
SNB-19 CNS = tested on: SNB-19 CNS
HL-60(TB) leukemia = tested on: HL-60(TB) leukemia
OVCAR-8 ovarian = tested on: OVCAR-8 ovarian
RPMI-8226 leukemia = tested on: RPMI-8226 leukemia
MALME-3M melanoma = tested on: MALME-3M melanoma
SR leukemia = tested on: SR leukemia
SW-620 colon = tested on: SW-620 colon
UACC-257 melanoma = tested on: UACC-257 melanoma
M14 melanoma = tested on: M14 melanoma
COLO 205 colon = tested on: COLO 205 colon
OVCAR-5 ovarian = tested on: OVCAR-5 ovarian
HOP-62 NSCLC = tested on: HOP-62 NSCLC
PC-3 prostate = tested on: PC-3 prostate
K-562 leukemia = tested on: K-562 leukemia
SF-268 CNS = tested on: SF-268 CNS
HCT-116 colon = tested on: HCT-116 colon
KM12 colon = tested on: KM12 colon
ACHN renal = tested on: ACHN renal
MCF7 breast = tested on: MCF7 breast
SK-MEL-2 melanoma = tested on: SK-MEL-2 melanoma
HT29 colon = tested on: HT29 colon
MDA-MB-231 breast = tested on: MDA-MB-231 breast
T-47D breast = tested on: T-47D breast
HOP-92 NSCLC = tested on: HOP-92 NSCLC
TK-10 renal = tested on: TK-10 renal
SK-MEL-5 melanoma = tested on: SK-MEL-5 melanoma
OVCAR-3 ovarian = tested on: OVCAR-3 ovarian
DU-145 prostate = tested on: DU-145 prostate
SF-295 CNS = tested on: SF-295 CNS
SNB-75 CNS = tested on: SNB-75 CNS
A498 renal = tested on: A498 renal
A549 NSCLC = tested on: A549 NSCLC
HS 578T breast = tested on: HS 578T breast
SK-MEL-28 melanoma = tested on: SK-MEL-28 melanoma
MDA-MB-468 breast = tested on: MDA-MB-468 breast
OVCAR-4 ovarian = tested on: OVCAR-4 ovarian
EKVX NSCLC = tested on: EKVX NSCLC
UACC-62 melanoma = tested on: UACC-62 melanoma
786-0 renal = tested on: 786-0 renal
MOLT-4 leukemia = tested on: MOLT-4 leukemia
NCI-H460 lung = tested on: NCI-H460 lung

## Cc1ccc(C(=O)Nc2ccc(-n3ccnc3)c(C(F)(F)F)c2)cc1C#Cc1cnc2cccnn12
NCI-H226 lung
  GI50: 567 nM
  TGI: 14400 nM
RXF 393 renal
  GI50: 1120 nM
  TGI: 3310 nM
UO-31 renal
  GI50: 702 nM
  TGI: > 45800 nM
BT-549 breast
  GI50: 1420 nM
  TGI: 4080 nM
NCI-H522 lung
  GI50: 851 nM
  TGI: 3360 nM
HCT-15 colon
  GI50: 1290 nM
  TGI: > 45800 nM
CCRF-CEM leukemia
  GI50: 1380 nM
  TGI: > 45800 nM
SN12C renal
  GI50: 1060 nM
  TGI: > 45800 nM
U251 CNS
  GI50: 3660 nM
  TGI: > 45800 nM
SK-OV-3 ovarian
  GI50: 5180 nM
  TGI: > 45800 nM
CAKI-1 renal
  GI50: 1420 nM
  TGI: 16000 nM
MDA-MB-435
  GI50: 1100 nM
  TGI: > 45800 nM
HCC-2998 colon
  GI50: 1130 nM
  TGI: > 45800 nM
NCI-H23 lung
  GI50: 1020 nM
  TGI: > 45800 nM
LOX IMVI melanoma
  GI50: 637 nM
  TGI: > 45800 nM
SNB-19 CNS
  GI50: 6060 nM
  TGI: > 45800 nM
HL-60(TB) leukemia
  GI50: 215 nM
  TGI: 1540 nM
OVCAR-8 ovarian
  GI50: 1320 nM
  TGI: > 45800 nM
RPMI-8226 leukemia
  GI50: 830 nM
  TGI: 3600 nM
MALME-3M melanoma
  GI50: 198 nM
  TGI: 1720 nM
SR leukemia
  GI50: 1330 nM
  TGI: > 45800 nM
SW-620 colon
  GI50: 1190 nM
  TGI: > 45800 nM
UACC-257 melanoma
  GI50: 1190 nM
  TGI: > 45800 nM
M14 melanoma
  GI50: 567 nM
  TGI: > 45800 nM
COLO 205 colon
  GI50: 1220 nM
  TGI: > 45800 nM
OVCAR-5 ovarian
  GI50: 1020 nM
  TGI: > 45800 nM
HOP-62 NSCLC
  GI50: 1360 nM
  TGI: > 45800 nM
PC-3 prostate
  GI50: 1550 nM
  TGI: 12100 nM
K-562 leukemia
  GI50: 4.58 nM
  TGI: > 45800 nM
SF-268 CNS
  GI50: 1980 nM
  TGI: > 45800 nM
HCT-116 colon
  GI50: 917 nM
  TGI: > 45800 nM
KM12 colon
  GI50: 203 nM
  TGI: > 45800 nM
ACHN renal
  GI50: 1640 nM
  TGI: 20500 nM
MCF7 breast
  GI50: 2140 nM
  TGI: > 45800 nM
SK-MEL-2 melanoma
  GI50: 458 nM
  TGI: 2510 nM
HT29 colon
  GI50: 915 nM
  TGI: > 45800 nM
MDA-MB-231 breast
  GI50: 331 nM
  TGI: 3210 nM
T-47D breast
  GI50: 943 nM
  TGI: 4110 nM
HOP-92 NSCLC
  GI50: 702 nM
  TGI: 3100 nM
TK-10 renal
  GI50: 2910 nM
  TGI: > 45800 nM
SK-MEL-5 melanoma
  GI50: 1270 nM
  TGI: 4920 nM
OVCAR-3 ovarian
  GI50: 2380 nM
  TGI: > 45800 nM
DU-145 prostate
  GI50: 2530 nM
  TGI: > 45800 nM
SF-295 CNS
  GI50: 1270 nM
  TGI: > 45800 nM
SNB-75 CNS
  GI50: 690 nM
  TGI: 5750 nM
A498 renal
  GI50: 2690 nM
  TGI: > 45800 nM
A549 NSCLC
  GI50: 1820 nM
  TGI: > 45800 nM
HS 578T breast
  GI50: 713 nM
  TGI: 2930 nM
SK-MEL-28 melanoma
  GI50: 790 nM
  TGI: 5780 nM
MDA-MB-468 breast
  GI50: 1570 nM
  TGI: > 45800 nM
OVCAR-4 ovarian
  GI50: 1300 nM
  TGI: > 45800 nM
EKVX NSCLC
  GI50: 3110 nM
  TGI: > 45800 nM
UACC-62 melanoma
  GI50: 495 nM
  TGI: 1620 nM
786-0 renal
  GI50: 2700 nM
  TGI: > 45800 nM
MOLT-4 leukemia
  GI50: 822 nM
  TGI: 3510 nM
NCI-H460 lung
  GI50: 1730 nM
  TGI: > 45800 nM

## O=[N+]([O-])c1ccc(N2CCOCC2)c2c1no[n+]2[O-]
MDA-MB-468 breast
  GI50: 769 nM
  TGI: 2830 nM

## c1ccc2cc(-c3n(Cc4ccc5ccccc5n4)c4ccccc4[n+]3Cc3ccc4ccccc4n3)ccc2c1
MDA-MB-468 breast
  GI50: 116 nM
  TGI: 529 nM
